Assay results taken from patent US12055539B2, “HDAC1/2 activator for promoting and/or accelerating myelination and/or remyelination” (UNIVERSITE DE FRIBOURG, priority 2017, dated 2024).
Entries after “also recorded” stand apart in the source; their conditions may differ.

Experiments:
[1] = tested on: HDAC1/2; assay: Immunofluorescence of spinal cord after intrathecal HDAC1/2 inhibitor; format: in vivo, mouse; conditions: single intrathecal injection 10 mg/kg, spinal cord collected after 24 h, vs vehicle
Method: For immuno fluorescence, adult mice were treated with a single intratechal injection of 10 mg/kg Mocetinostat (HDAC1/2 inhibitor) or its vehicle and their spinal cord was collected 24 h after injection. Mice were killed and perfused with 4% PFA and their spinal cord was processed as described above in Example 8. Primary antibody: EEF1A-pan (Acetyl-Lys41) antibody (rabbit, Assay Biotech, 1:1000, cat. # D12106), CC1 (mouse, 1:200, Calbiochem/Millipore, cat. # OP80).

[2] = tested on: HDAC1/2; assay: Subcellular fractionation, IP and Western blot in de-differentiated rat Schwann cells; format: cell-based
Method: Purified primary rat Schwann cell cultures were obtained as described (ref. 5). Rat Schwann cells were then grown in proliferation medium: DMEM containing 10% Fetal calf serum (FCS, Gibco), 1:500 penicillin/streptomycin (Invitrogen), 4 μg/m1 crude GGF (bovine pituitary extract, Bioconcept), and 2 μM forskolin (Sigma), at 37° C. and 5% CO2/95% air. Schwann cell de-differentiation culture protocol was previously described (ref. 6). Briefly, Schwann cells were first growth-arrested in defined medium (DM, ref. 5) for 8 to 15 h, then 1 mM dbcAMP (Sigma) was added to induce differentiation. Cells were incubated in this medium for another 3 days. The medium was then changed to DM only without dbcAMP, and incubated in this medium for 3 days (differentiation mimicking adult Schwann cell stage). To induce de-differentiation, cells were then changed to proliferation medium and incubated in this medium for 3 days.
Two 15-cm culture plates of confluent de-differentiated rat Schwann cells were used per IP. Cells were either treated with 0.6 μM Mocetinostat (HDAC1/2 inhibitor) or its vehicle for 3 days in de-differentiation medium. Cells were washed with PBS and submitted to subcellular fractionation to separate the nuclear from the cytoplasmic fractions. IPs were then carried out on each fraction nuclear and cytoplasmic, as described above. Immunoprecipitating antibodies: 2.5 μg of eEF1A1 (rabbit, Abcam, cat. # ab157455), Sox10 (rabbit, DCS Innovative Diagnostik-Systeme, cat. # 51058C01) or GFP (rabbit, Abcam, cat. # ab290) antibodies were used per IP. Rabbit anti-GFP antibody was used as negative control IP. Acetylation of eEF1A1 and co-immunoprecipitation of acetylated eEF1A with Sox10 were detected using EEF1A-pan (Acetyl-Lys41) primary antibody (rabbit, Assay Biotech, 1:1000, cat. # D12106). Co-immunoprecipitation of HDAC2 with eEF1A1 was detected using an HDAC2 antibody (mouse, Sigma, 1:1000, cat. # H2663). Light chain-specific goat anti-rabbit-HRP or anti-mouse-HRP secondary antibodies (Jackson ImmunoResearch) were used. Detection was done with Immobilon Western Chemiluminescent HRP Substrate (Millipore). Inputs of the IPs were assayed on lysates used for IPs. GAPDH (mouse, Gene Tex, 1:5000, cat. # GTX28245) and LaminA/C (mouse, Sigma, 1:2000, cat. # SAB4200236) antibodies were used to evaluate the efficiency of cytoplasmic and nuclear fractionation.

[3] = tested on: HDAC1/2; assay: Acetyl-lysine immunoprecipitation and LC-MS/MS of sciatic nerves after crush lesion; format: in vivo, mouse; conditions: 10 mg/kg in pelvic cavity after sciatic nerve crush, nerves collected 24 h later, compared to vehicle
Method: Sciatic nerve crush lesions were carried out in adult mice (3-4 month old) with the following procedure: Isoflurane (3% for induction, 1.5-2% for narcosis during operation) was used for anesthesia. For analgesia, 0.1 mg/kg buprenorphine (Temgesic; Essex Chemie) was administered by i.p. injection 1 h before lesion and 12 hours after the operation. An incision was made at the height of the hip and the sciatic nerve was exposed on one side. The nerve was crushed (5×10 sec with crush forceps: Ref FST 00632-11) and the wound was closed using Histoacryl Tissue Glue (BBraun). After the operation, mice were wrapped in paper towels and placed on a warming pad until recovery from anesthesia.
For immunoprecipitation (IP), the injured sciatic nerve was collected from the lesion site to around 12 mm distal to the lesion site (region where the nerve splits into the three branches of tibial, sural and common peroneal nerves). After perineurium removal, sciatic nerves were frozen in liquid nitrogen, pulverized with a chilled mortar and pestle, lysed in radiolP assay (RIPA) buffer (10 mM Tris/HCl, pH 7.4, 150 mM NaCl, 50 mM NaF, 100 mM NaVO4, 1 mM EDTA, 0.5% wt/vol sodium deoxycholate, and 0.5% Nonidet P-40) for 15 min on ice, and centrifuged to pellet debris. Supernatants were collected and pre-cleared for 1 h with 30 gl protein A/G PLUS agarose beads (Santa Cruz Biotechnology). […]

[4] = target: T1, HDAC2 (Mus musculus, UniProt P70288); assay: Western blot of sciatic nerve lysates after sciatic nerve crush lesion; format: in vivo; conditions: 10 mg/kg/day i.p. from 9 to 13 dpl, 14 and/or 30 dpl, vs vehicle
T1 construct: from tissue; host or cells: mouse sciatic nerve (adult after crush; P4 control and Schwann-cell HDAC1/2 dKO pups)
T1 sequence (P70288 whole entry): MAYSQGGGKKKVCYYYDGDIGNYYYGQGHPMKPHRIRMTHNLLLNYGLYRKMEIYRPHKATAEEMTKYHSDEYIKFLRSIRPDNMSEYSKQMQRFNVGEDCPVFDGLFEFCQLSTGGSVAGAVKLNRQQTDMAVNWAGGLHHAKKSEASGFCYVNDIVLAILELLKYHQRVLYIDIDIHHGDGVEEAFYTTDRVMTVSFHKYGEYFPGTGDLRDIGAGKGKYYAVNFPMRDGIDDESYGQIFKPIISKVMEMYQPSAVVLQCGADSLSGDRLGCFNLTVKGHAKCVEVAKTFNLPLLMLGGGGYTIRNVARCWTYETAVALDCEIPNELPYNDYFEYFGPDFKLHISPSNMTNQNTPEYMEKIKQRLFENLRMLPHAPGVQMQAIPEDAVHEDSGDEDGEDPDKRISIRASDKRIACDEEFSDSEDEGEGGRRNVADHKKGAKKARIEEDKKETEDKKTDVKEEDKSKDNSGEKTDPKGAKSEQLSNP
Method: Adult mice were treated with intraperitoneal injection of 10 mg/kg/day theophylline or its vehicle from 9 to 13 days post sciatic nerve crush lesion. At 14 days post lesion (dpl) the injured sciatic nerve (“crush”) was collected, as well as the same region of the contralateral nerve (“contra”) as internal control for each animal. After perineurium removal, sciatic nerves were frozen in liquid nitrogen, pulverized with a chilled mortar and pestle, lysed in RIPA buffer for 15 min on ice, and centrifuged to pellet debris. Supernatants were collected, and protein concentration was determined by Lowry Protein assay (Bio-Rad Laboratories). Sciatic nerves were submitted to SDS-PAGE and analysed by Western blot. Primary antibodies: HDAC2 (mouse, 1:1000, Sigma, cat. # H2663), Sox10 (rabbit, 1:250, DCS Innovative Diagnostik-Systeme, cat. # SI058C01), GAPDH (glyceraldehyde-3-phosphate-dehydrogenase, mouse, 1:5000, Genetex, cat. # GTX28245), P0 (chicken, 1:1000, Ayes Labs, cat. # PZO), Krox20 (rabbit, 1:500, Axxora, cat. # CO-PRB-236P-100). All secondary antibodies were from Jackson ImmunoResearch: light chain-specific goat anti-mouse-HRP (horse radish peroxidase) and goat anti-rabbit-HRP, and heavy chain-specific goat anti-chicken-HRP.

[5] = tested on: HDAC2; assay: Western blot of P4 sciatic nerve lysates of control and HDAC1/2 dKO mice; format: in vivo, mouse; conditions: control mice, 10 mg/kg s.c. once a day for 3 days from P1, nerves at P4
Method: In P1 control and dKO mice (as described in Example 2), 10 mg/kg theophylline or its vehicle were injected subcutaneously once a day for 3 days. Sciatic nerves were collected at P4. After perineurium removal, sciatic nerves were frozen in liquid nitrogen, pulverized with a chilled mortar and pestle, lysed in RIPA buffer for 15 min on ice, and centrifuged to pellet debris. Supernatants were collected, submitted to SDS-PAGE and analysed by Western blot. Primary antibodies: HDAC2 (mouse, 1:1000, Sigma, cat. # H2663), Sox10 (rabbit, 1:250, DCS Innovative Diagnostik-Systeme, cat. # SI058C01), GAPDH (glyceraldehyde-3-phosphate-dehydrogenase, mouse, 1:5000, Genetex, cat. # GTX28245), P0 (chicken, 1:1000, Ayes Labs, cat. # PZO). Secondary antibodies were from Jackson ImmunoResearch: light chain-specific goat anti-mouse-HRP (horse radish peroxidase) and goat anti-rabbit-HRP, and heavy chain-specific goat anti-chicken-HRP.

[6] = tested on: mice after sciatic nerve crush lesion; assay: Toe pinch test after sciatic nerve crush lesion; format: in vivo, mouse; conditions: 10 mg/kg/day i.p. from 9 to 13 dpl, vs vehicle
Method: (§1) Adult mice were treated with theophylline or vehicle as described above in Example 4 from 9 to 13 days post sciatic nerve crush lesion (carried out as described above in Example 1). Mice were placed three times on the Rotarod apparatus at a fixed speed of 15 rpm to test balance and motor coordination, at 14 and 30 dpl. The duration of each trial was limited to 600 s, and trials were separated by a 30 min recovery period. Latency to fall from the rotating beam was recorded and the average of the three trials was used for quantification. Recovery of sensory function was tested at 14 and 30 dpl by toe pinch test: each toe of the rear foot on the right side (lesioned side) was pinched with equal pressure applied by the same experimenter using flat tip forceps. Immediate withdrawal was recorded as functional sensitivity of the pinched toe. […] All mice were between 3 and 4 months old. The experimenter was blinded regarding the treatment that mice received.

[7] = tested on: crushed sciatic nerves; assay: Electron microscopy of crushed sciatic nerves, myelin thickness (g-ratio); format: in vivo, mouse; conditions: 10 mg/kg/day i.p. from 9 to 13 dpl, vs vehicle; for myelin sheath thickness: 10 mg/kg/day
Method: Adult mice were treated with theophylline or vehicle as described above in Example 4 from 9 to 13 days post sciatic nerve crush lesion. Injured sciatic nerves were collected for morphological analysis by electron microscopy. Briefly, mice were killed with 150 mg/kg pentobarbital i.p. (Esconarkon; Streuli Pharma AG) and sciatic nerves were fixed in situ with 3% paraformaldehyde and 0.15% glutaraldehyde in 0.1 M phosphate buffer, pH 7.4. Fixed tissues were post-fixed in 2% osmium tetroxide, dehydrated through a graded acetone series as described previously (ref. 7), and embedded in Spurr's resin (Electron Microscopy Sciences). Ultrathin cross-sections (90-nm thick) were made, as described (ref. 7). All analyses were done at 5 mm distal to the lesion site. No contrasting reagent was applied. Images were acquired using a Philips CM 100 BIOTWIN equipped with a Morada side-mounted digital camera (Olympus). The g-ratio of at least 50 axons was measured per animal and 3 animals per group (theophylline or vehicle) were used at 14 dpl. At 30 dpl, only 2 animals were used (more animals will be added at 30 days post lesion for statistical analyses).

[8] = tested on: mice after sciatic nerve crush lesion; assay: Rotarod after sciatic nerve crush lesion; format: in vivo, mouse; conditions: 15 rpm, 10 mg/kg/day i.p. from 9 to 13 dpl, vs vehicle
Method: as §1

[9] = tested on: lysolecithin demyelinating lesion of the spinal cord; assay: Electron microscopy of spinal cord after lysolecithin lesion (remyelination); format: in vivo, mouse; conditions: 14 and 30 dpl, treated 9 to 13 days post lysolecithin lesion, vs vehicle
Method: For electron microscopy analyses, adult mice were submitted to a lysolecithin lesion and treated with theophylline or vehicle, as described above in Example 8. Mice were killed at 14 dpl or 30 dpl with 150 mg/kg pentobarbital i.p. (Esconarkon; Streuli Pharma AG) and perfused with 3% PFA and 0.15% glutaraldehyde in 0.1 M phosphate buffer, pH 7.4. Spinal cords were collected and processed as described above in Example 6.

[10] = target: T1, HDAC2; assay: Immunofluorescence of lysolecithin lesion site in dorsal funiculus of spinal cord; format: in vivo; conditions: 14 dpl, treated 9 to 13 days post lysolecithin lesion, vs vehicle
Method: A focal demyelinating lesion was induced in the dorsal funiculus of the spinal cord of adult mice by injection of lysolecithin (1 μl at 1%), as described (ref. 9). This demyelination model is used as a model of multiple sclerosis lesion and is well characterized, the kinetics of demyelination and remyelination being well known. Mice were treated as described above in Example 4 with theophylline or vehicle for 4 days from 9 to 13 days post lysolecithin lesion, when OLP start to re-differentiate to remyelinate demyelinated axons. Mice were killed with 150 mg/kg pentobarbital i.p. (Esconarkon; Streuli Pharma AG) and perfused with 4% PFA. Spinal cords were collected, post-fixed for 2 h in 4% PFA, incubated in 30% sucrose overnight at 4° C., embedded in OCT compound and stored at −80° C. Spinal cords were then processed as sciatic nerves for immunofluorescence, as described in Example 2. Primary antibodies: HDAC2 (rabbit, 1:200, Santa Cruz Biotechnology, cat. # sc-7899), CC1 (mouse, 1:200, Calbiochem/Millipore, cat. # OP80), MBP (rat, 1:500, Serotec, cat. # MCA409S), Sox10 (rabbit, 1:250, DCS Innovative Diagnostik-Systeme, cat. # SI058C01).

[11] = tested on: multiple sclerosis; assay: Contemplative combination treatment of MS patients; format: in vivo, human
Method: In this contemplative example, a group of female and male patients suffering from MS receiving theophylline [250 mg/day] during 1 month in addition to the standard treatment of interferon-β1a.

[12] = 0.6 μM for 3 days in de-differentiation medium

## Nc1ccccc1NC(=O)c1ccc(CNc2nccc(-c3cccnc3)n2)cc1 [Mocetinostat]
[1]
  acetylated eEF1A in mature oligodendrocytes (CC1+): robust increase; also recorded: accumulation of Ace-eEF1A in the nuclei of oligodendrocytes
[2]; [12]
  Sox10 expression in the nuclear compartment: strong decrease
  Sox10 localization: partially re-localized from the nuclear to the cytoplasmic compartment
[2]; 0.6 μM for 3 days in de-differentiation medium, vs vehicle, predominantly nuclear
  acetylated eEF1A1 levels: strong increase
[2]; 0.6 μM for 3 days, nuclear and cytoplasmic fractions
  interaction (co-immunoprecipitation) of acetylated eEF1A with Sox10: potentiated
[3]
  abundance of eEF1A1 peptides after immunoprecipitation with anti-acetyl-lysine antibody: increased abundance

## Cn1c(=O)c2[nH]cnc2n(C)c1=O [theophylline]
[4]
  HDAC2 expression levels: increased levels
  Krox20 levels: high increase; also recorded: increased levels
  P0 (myelin protein zero) levels: high increase; also recorded: increased levels
  Sox10 levels: high increase; also recorded: increased levels
[5]
  HDAC2 levels: increases; also recorded: increased levels
  P0 levels: increases; also recorded: increased levels
  Sox10 levels: increases; also recorded: increased levels
[6]; 14 dpl
  toe pinch test, recovery of sensory function: recovered the sensitivity of more toes
[6]; 30 dpl
  toe pinch test, recovery of sensory function: vehicle-treated mice had not yet recovered their sensory function as well as theophylline-treated mice
[7]; 5 mm distal to lesion site
  g-ratio (axon diameter : [axon+myelin] diameter): significantly lower
[7]; 14 dpl
  myelin sheath thickness: thicker myelin sheath
[7]; 30 dpl (only 2 animals)
  myelin sheath thickness: presumably also at 30 dpl; also recorded: thicker
[8]; 14 dpl
  performance on the Rotarod (motor function and coordination): higher performances
[8]; 30 dpl
  performance on the Rotarod (motor function and coordination): perform as well as theophylline-treated mice
[9]
  remyelination of the lesioned spinal cord: strongly enhanced
[10]
  HDAC2 expression in the lesion site of the spinal cord, including differentiated oligodendrocytes (CC1-positive): strongly increases; also recorded: higher amounts of HDAC2
  Sox10 levels in the lesion site: increases; also recorded: higher levels of Sox10
  myelin basic protein (MBP) levels in the lesion site: increases; also recorded: higher myelin content
[11]; 250 mg/day during 1 month in addition to standard interferon-β1a
  disease progression: in some cases complete stop of disease progression
[11]; 250 mg/day during 1 month in addition to standard interferon-β1a, vs standard treatment only
  remission following an attack (exacerbation): significantly faster remission
[11]; combination therapy with interferon-β1a
  life quality: substantially increased life quality
